In US20220265629A1, “TREATMENT OF SYSTOLIC DYSFUNCTION AND HEART FAILURE WITH REDUCED EJECTION FRACTION WITH THE COMPOUND (R)-4-(1-((3-(DIFLUOROMETHYL)-1-METHYL-1H-PYRAZOL-4-YL)SULFONYL)-1-FLUOROETHYL)-N-(ISOXAZOL-3-YL)PIPERIDINE-1-CARBOXAMIDE” (MyoKardia, Inc., priority 2019, published 2022):

Tested on: patients with stable HFrEF
Test: HFrEF study Part 2 (MAD Cohorts A-D): safety (TEAEs, serum troponin, ECG, Holter)
Type: in vivo, human
Description: Safety and efficacy assessments were conducted by measuring patients' vital signs and laboratory parameters; performing TTE to measure, e.g., systolic ejection time; performing electrocardiograms (e.g., 12-lead ECG), real-time ECG telemetry (e.g., at least 3-lead), and Holter ECG; and measuring levels of troponin (e.g., troponin I and/or troponin T) and […].
The following safety laboratory parameters were measured: (1) hematology parameters (CBC, including differential count, and platelet count); (2) serum chemistry parameters (e.g., sodium, potassium, chloride, bicarbonate, calcium, magnesium, urea, creatinine, ALP, ALT, AST, total bilirubin, glucose, and CPK); and (3) urinalysis parameters (e.g., pH, protein, glucose, leukocyte esterase, and blood).
Abnormal and/or rising troponin values (as per investigator's judgment and taking into account potential baseline troponin elevation frequently observed in heart failure) led to the patient being clinically evaluated for possible myocardial ischemia. […] The entire clinical context (e.g., signs, symptoms, new ECG changes, new troponin, and CK-MB abnormalities) was evaluated and correlated with any other relevant clinical findings, patient's medical history, and laboratory data to determine the clinical significance of the findings. Troponin results performed on Day 2 of Part 1 (SAD) and Day 10 of Part 2 (MAD) at a local lab were reviewed prior to the patient being discharged the next day.

[1] = Cohort A + C 75 mg BID (n = 15)
[2] = serum, MAD cohorts, Total Compound I (n = 22), ULN = 0.014
[3] = serum, MAD cohorts, Total Compound I (n = 30), ULN = 0.03

Cn1cc(S(=O)(=O)[C@@](C)(F)C2CCN(C(=O)Nc3ccon3)CC2)c(C(F)F)n1 [Compound I, (R)-4-(1-((3-(difluoromethyl)-1-methyl-1H-pyrazol-4-yl)sulfonyl)-1-fluoroethyl)-N-(isoxazol-3-yl)piperidine-1-carboxamide]
patients with troponin increase (50 mg): 2/9 | patients with troponin increase (75 mg): 2/15 | patients with troponin increase (100 mg): 3/6 | Any AE leading to death, number of patients (%) [1]: 0 n (%) | Any TEAE leading to permanent treatment discontinuation, number of patients (%) [1]: 0 n (%) | Any TEAE, number of patients (%) [1]: 6 (40.0) n (%) | Any serious TEAE, number of patients (%) [1]: 1 (6.7) n (%) | TEAE: Abdominal discomfort [1]: 0 n (%) | TEAE: Alanine aminotransferase increased [1]: 1 (6.7) n (%) | TEAE: Anemia [1]: 1 (6.7) n (%) | TEAE: Application site erosion [1]: 0 n (%) | TEAE: Arthralgia [1]: 0 n (%) | TEAE: Arthropod bite [1]: 0 n (%) | TEAE: Back pain [1]: 0 n (%) | TEAE: Blood creatine phosphokinase increased [1]: 0 n (%) | TEAE: Blood creatinine increased [1]: 0 n (%) | TEAE: Cough [1]: 1 (6.7) n (%) | TEAE: Dermatitis contact [1]: 0 n (%) | TEAE: Dry eye [1]: 0 n (%) | TEAE: Fatigue [1]: 2 (13.3) n (%) | TEAE: Fluid overload [1]: 0 n (%) | TEAE: Gingival pain [1]: 0 n (%) | TEAE: Hyperkalemia [1]: 0 n (%) | TEAE: Infusion site erythema [1]: 0 n (%) | TEAE: Nasopharyngitis [1]: 0 n (%) | TEAE: Rash [1]: 0 n (%) | TEAE: Renal failure [1]: 0 n (%) | TEAE: Renal impairment [1]: 0 n (%) | TEAE: Testicular pain [1]: 0 n (%) | TEAE: Troponin increased [1]: 1 (6.7) n (%) | TEAE: Ventricular tachycardia [1]: 0 n (%) | Any AE leading to death, number of patients (%) (Cohort B 50 mg BID (n = 9)): 0 n (%) | Any TEAE leading to permanent treatment discontinuation, number of patients (%) (Cohort B 50 mg BID (n = 9)): 0 n (%) | Any TEAE, number of patients (%) (Cohort B 50 mg BID (n = 9)): 7 (77.8) n (%) | Any serious TEAE, number of patients (%) (Cohort B 50 mg BID (n = 9)): 0 n (%) | TEAE: Abdominal discomfort (Cohort B 50 mg BID (n = 9)): 1 (11.1) n (%) | TEAE: Alanine aminotransferase increased (Cohort B 50 mg BID (n = 9)): 1 (11.1) n (%) | TEAE: Anemia (Cohort B 50 mg BID (n = 9)): 0 n (%) | TEAE: Application site erosion (Cohort B 50 mg BID (n = 9)): 1 (11.1) n (%) | TEAE: Arthralgia (Cohort B 50 mg BID (n = 9)): 0 n (%) | TEAE: Arthropod bite (Cohort B 50 mg BID (n = 9)): 0 n (%) | TEAE: Back pain (Cohort B 50 mg BID (n = 9)): 0 n (%) | TEAE: Blood creatine phosphokinase increased (Cohort B 50 mg BID (n = 9)): 1 (11.1) n (%) | TEAE: Blood creatinine increased (Cohort B 50 mg BID (n = 9)): 0 n (%) | TEAE: Cough (Cohort B 50 mg BID (n = 9)): 0 n (%) | TEAE: Dermatitis contact (Cohort B 50 mg BID (n = 9)): 2 (22.2) n (%) | TEAE: Dry eye (Cohort B 50 mg BID (n = 9)): 0 n (%) | TEAE: Fatigue (Cohort B 50 mg BID (n = 9)): 0 n (%) | TEAE: Fluid overload (Cohort B 50 mg BID (n = 9)): 1 (11.1) n (%) | TEAE: Gingival pain (Cohort B 50 mg BID (n = 9)): 0 n (%) | TEAE: Hyperkalemia (Cohort B 50 mg BID (n = 9)): 1 (11.1) n (%) | TEAE: Infusion site erythema (Cohort B 50 mg BID (n = 9)): 1 (11.1) n (%) | TEAE: Nasopharyngitis (Cohort B 50 mg BID (n = 9)): 0 n (%) | TEAE: Rash (Cohort B 50 mg BID (n = 9)): 1 (11.1) n (%) | TEAE: Renal failure (Cohort B 50 mg BID (n = 9)): 0 n (%) | TEAE: Renal impairment (Cohort B 50 mg BID (n = 9)): 0 n (%) | TEAE: Testicular pain (Cohort B 50 mg BID (n = 9)): 0 n (%) | TEAE: Troponin increased (Cohort B 50 mg BID (n = 9)): 0 n (%) | TEAE: Ventricular tachycardia (Cohort B 50 mg BID (n = 9)): 1 (11.1) n (%) | Any AE leading to death, number of patients (%) (Cohort D 100 mg BID (n = 6)): 0 n (%) | Any TEAE leading to permanent treatment discontinuation, number of patients (%) (Cohort D 100 mg BID (n = 6)): 0 n (%) | Any TEAE, number of patients (%) (Cohort D 100 mg BID (n = 6)): 4 (66.7) n (%) | Any serious TEAE, number of patients (%) (Cohort D 100 mg BID (n = 6)): 0 n (%) | TEAE: Abdominal discomfort (Cohort D 100 mg BID (n = 6)): 0 n (%) | TEAE: Alanine aminotransferase increased (Cohort D 100 mg BID (n = 6)): 0 n (%) | TEAE: Anemia (Cohort D 100 mg BID (n = 6)): 0 n (%) | TEAE: Application site erosion (Cohort D 100 mg BID (n = 6)): 0 n (%) | TEAE: Arthralgia (Cohort D 100 mg BID (n = 6)): 0 n (%) | TEAE: Arthropod bite (Cohort D 100 mg BID (n = 6)): 1 (16.7) n (%) | TEAE: Back pain (Cohort D 100 mg BID (n = 6)): 0 n (%) | TEAE: Blood creatine phosphokinase increased (Cohort D 100 mg BID (n = 6)): 0 n (%) | TEAE: Blood creatinine increased (Cohort D 100 mg BID (n = 6)): 1 (16.7) n (%) | TEAE: Cough (Cohort D 100 mg BID (n = 6)): 0 n (%) | TEAE: Dermatitis contact (Cohort D 100 mg BID (n = 6)): 0 n (%) | TEAE: Dry eye (Cohort D 100 mg BID (n = 6)): 0 n (%) | TEAE: Fatigue (Cohort D 100 mg BID (n = 6)): 0 n (%) | TEAE: Fluid overload (Cohort D 100 mg BID (n = 6)): 0 n (%) | TEAE: Gingival pain (Cohort D 100 mg BID (n = 6)): 1 (16.7) n (%) | TEAE: Hyperkalemia (Cohort D 100 mg BID (n = 6)): 0 n (%) | TEAE: Infusion site erythema (Cohort D 100 mg BID (n = 6)): 0 n (%) | TEAE: Nasopharyngitis (Cohort D 100 mg BID (n = 6)): 0 n (%) | TEAE: Rash (Cohort D 100 mg BID (n = 6)): 0 n (%) | TEAE: Renal failure (Cohort D 100 mg BID (n = 6)): 0 n (%) | TEAE: Renal impairment (Cohort D 100 mg BID (n = 6)): 0 n (%) | TEAE: Testicular pain (Cohort D 100 mg BID (n = 6)): 0 n (%) | TEAE: Troponin increased (Cohort D 100 mg BID (n = 6)): 1 (16.7) n (%) | TEAE: Ventricular tachycardia (Cohort D 100 mg BID (n = 6)): 1 (16.7) n (%) | QTc (MAD cohorts): No increase | patients with treatment-emergent adverse events (TEAEs) (MAD cohorts, 50-100 mg BID): 17 (57%) | patients with transient asymptomatic increase in troponin I or hs-troponin T (MAD cohorts, all doses): 7 (23%) | Any AE leading to death, number of patients (%) (Total Compound I (n = 30)): 0 n (%) | Any TEAE leading to permanent treatment discontinuation, number of patients (%) (Total Compound I (n = 30)): 0 n (%) | Any TEAE, number of patients (%) (Total Compound I (n = 30)): 17 (56.7) n (%) | Any serious TEAE, number of patients (%) (Total Compound I (n = 30)): 1 (3.3) n (%) | TEAE: Abdominal discomfort (Total Compound I (n = 30)): 1 (3.3) n (%) | TEAE: Alanine aminotransferase increased (Total Compound I (n = 30)): 2 (6.7) n (%) | TEAE: Anemia (Total Compound I (n = 30)): 1 (3.3) n (%) | TEAE: Application site erosion (Total Compound I (n = 30)): 1 (3.3) n (%) | TEAE: Arthralgia (Total Compound I (n = 30)): 0 n (%) | TEAE: Arthropod bite (Total Compound I (n = 30)): 1 (3.3) n (%) | TEAE: Back pain (Total Compound I (n = 30)): 0 n (%) | TEAE: Blood creatine phosphokinase increased (Total Compound I (n = 30)): 1 (3.3) n (%) | TEAE: Blood creatinine increased (Total Compound I (n = 30)): 1 (3.3) n (%) | TEAE: Cough (Total Compound I (n = 30)): 1 (3.3) n (%) | TEAE: Dermatitis contact (Total Compound I (n = 30)): 2 (6.7) n (%) | TEAE: Dry eye (Total Compound I (n = 30)): 0 n (%) | TEAE: Fatigue (Total Compound I (n = 30)): 2 (6.7) n (%) | TEAE: Fluid overload (Total Compound I (n = 30)): 1 (3.3) n (%) | TEAE: Gingival pain (Total Compound I (n = 30)): 1 (3.3) n (%) | TEAE: Hyperkalemia (Total Compound I (n = 30)): 1 (3.3) n (%) | TEAE: Infusion site erythema (Total Compound I (n = 30)): 1 (3.3) n (%) | TEAE: Nasopharyngitis (Total Compound I (n = 30)): 0 n (%) | TEAE: Rash (Total Compound I (n = 30)): 1 (3.3) n (%) | TEAE: Renal failure (Total Compound I (n = 30)): 0 n (%) | TEAE: Renal impairment (Total Compound I (n = 30)): 0 n (%) | TEAE: Testicular pain (Total Compound I (n = 30)): 0 n (%) | TEAE: Troponin increased (Total Compound I (n = 30)): 2 (6.7) n (%) | TEAE: Ventricular tachycardia (Total Compound I (n = 30)): 2 (6.7) n (%) | hs-troponin T, max change from baseline [2]: (0.041) ng/mL | hs-troponin T, max peak troponin post dose [2]: (0.052) ng/mL | hs-troponin T, median change from baseline [2]: 0.005 ng/mL | hs-troponin T, median peak troponin post dose [2]: 0.020 ng/mL | Troponin I, max change from baseline [3]: (0.87) ng/mL | Troponin I, max peak troponin post dose [3]: (0.88) ng/mL | Troponin I, median change from baseline [3]: 0.010 ng/mL | Troponin I, median peak troponin post dose [3]: 0.025 ng/mL | safety and tolerability (single dose up to 550 mg and 50 to 100 mg BID for 7 days, HFrEF subjects): safe and generally well-tolerated
